The results in this text go back to paper PMC9860315, “Neuronally produced betaine acts via a ligand-gated ion channel to control behavioral states” (Proceedings of the National Academy of Sciences of the …, 2022).

The IC50 is the concentration at which inhibition is half-maximal. Low values mean greater potency in that assay, high ones weaker potency in that assay. By EC50 is commonly meant the midpoint of the concentration-response curve. Lower therefore signals a more potent agent.

In assay [1] the target is T1, LGC-41 (Caenorhabditis elegans, UniProt Q18518).
T1 construct: homomeric channel, cDNA from wild-type N2
T1 sequence (Q18518 26-540): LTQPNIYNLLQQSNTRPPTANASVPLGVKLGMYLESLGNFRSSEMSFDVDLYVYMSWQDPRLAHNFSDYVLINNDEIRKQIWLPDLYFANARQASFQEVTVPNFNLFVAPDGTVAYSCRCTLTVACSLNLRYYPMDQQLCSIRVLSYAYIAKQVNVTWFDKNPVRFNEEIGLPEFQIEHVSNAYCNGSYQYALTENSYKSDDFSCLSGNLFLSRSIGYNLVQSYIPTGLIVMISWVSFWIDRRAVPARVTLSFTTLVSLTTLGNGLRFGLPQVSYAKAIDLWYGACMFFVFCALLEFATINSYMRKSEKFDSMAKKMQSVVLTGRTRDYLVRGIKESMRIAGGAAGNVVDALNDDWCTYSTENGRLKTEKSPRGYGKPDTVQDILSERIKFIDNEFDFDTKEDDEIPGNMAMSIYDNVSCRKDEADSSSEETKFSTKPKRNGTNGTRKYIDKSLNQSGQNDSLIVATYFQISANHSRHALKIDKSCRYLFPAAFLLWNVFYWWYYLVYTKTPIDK
The assay can be described thus: two-electrode voltage clamp in Xenopus oocytes, block of current induced by […] betaine. The format is cell-based. (In general: Two-electrode voltage clamp is typically applied to oocytes expressing channels or transporters.)

Assay [2] has as its target T1, LGC-41. As to the kind of experiment: two-electrode voltage clamp in Xenopus oocytes, agonist dose-response. The format is cell-based.

`O=C1C[C@@H]2OCC=C3CN4CC[C@]56c7ccccc7N1[C@H]5[C@H]2[C@H]3C[C@H]46` [strychnine] had an IC50 in assay [1] of 973 µM. As to `C[N+](C)(C)CC(=O)O` [betaine], in assay [2], the EC50 stood at 211 µM. In turn, `C=C(C)[C@@H]1[C@H]2OC(=O)[C@@H]1[C@]1(O)C[C@H]3OC34C(=O)O[C@H]2[C@@]41C.CC(C)(O)[C@@H]1[C@H]2OC(=O)[C@@H]1[C@]1(O)C[C@H]3OC34C(=O)O[C@H]2[C@@]41C` (stereo partly drawn) [picrotoxin] came in with an IC50 in assay [1] of 144 µM.
